Results published in US20210308089A1, “METHODS OF TREATING AND/OR PREVENTING VIRAL INFECTIONS AND/OR DISEASES CAUSED BY VIRUSES IN A SUBJECT IN NEED THEREOF” (priority 2020, published 2021).

Tested on: patients of the REDUCE-IT and earlier EPA placebo-controlled trials
Test: Example 3: adverse events by risk ratio, icosapent ethyl vs placebo (candidate categories; infectious disease terms of interest)
Details: R-I
[1] = Age-Related Macular Degeneration

CC/C=C\C/C=C\C/C=C\C/C=C\C/C=C\CCCC(=O)OCC [icosapent ethyl, eicosapentaenoic acid ethyl ester]
Risk Ratio (95% CI): Cognitive Decline: Cognitive and attention disorders and disturbances (AE table): 1.000 (0.141 to 7.097) −1
Risk Ratio (95% CI): Cognitive Decline: Cognitive disturbances (AE table): [No cases in study]
Risk Ratio (95% CI): Cough (AE table): 1.000 (0.841 to 1.189) −1
Risk Ratio (95% CI): Cystic Fibrosis (AE table): [No cases in study]
Risk Ratio (95% CI): Decreased Appetite (AE table): 2.584 (1.329 to 5.024) −4
Risk Ratio (95% CI): Deep Venous Thromboembolism (AE table): 0.625 (0.205 to 1.909) 2
Risk Ratio (95% CI): Depression: Depressed mood disorders and disturbances (AE table): 1.106 (0.861 to 1.422) −1
Risk Ratio (95% CI): Depression: Depressive disorders (AE table): 1.123 (0.867 to 1.454) −1
Risk Ratio (95% CI): Depression: Depressive disorders - Agitated depression (AE table): [2 drugs vs 0 PBO]
Risk Ratio (95% CI): Depression: Depressive disorders - Depression (AE table): 1.097 (0.843 to 1.428) −1
Risk Ratio (95% CI): Depression: Depressive disorders - Major depression (AE table): 3.001 (0.312 to 28.836) −4
Risk Ratio (95% CI): Depression: Depressive disorders - Persistent depressive disorder (AE table): 2.000 (0.181 to 22.053) −3
Risk Ratio (95% CI): Depression: Mood alterations - Depressed mood (AE table): 1.000 (0.290 to 3.452) −1
Risk Ratio (95% CI): Depression: Mood alterations - Depressive symptom (AE table): 0.500 (0.045 to 5.513) 3
Risk Ratio (95% CI): Depression: Mood alterations with depressive symptoms (AE table): 0.857 (0.288 to 2.549) 1
Risk Ratio (95% CI): Dermatitis psoriasiform (AE table): [1 drug vs 0 PBO]
Risk Ratio (95% CI): Dermatitis, allergic (AE table): 0.250 (0.071 to 0.885) 4
Risk Ratio (95% CI): Diabetic Nephropathy (AE table): 0.909 (0.387 to 2.139) 1
Risk Ratio (95% CI): ESRD (AE table): 0.667 (0.111 to 3.989) 2
Risk Ratio (95% CI): Ear infection (AE table): 0.821 (0.515 to 1.307) 1
Risk Ratio (95% CI): Embolism and Thrombosis (AE table): 1.064 (0.716 to 1.581) −1
Risk Ratio (95% CI): Emphysema (AE table): 0.600 (0.294 to 1.266) 2
Risk Ratio (95% CI): Epilepsy (AE table): 1.000 (0.063 to 15.986) −1
Risk Ratio (95% CI): Erectile dysfunction (AE table): 0.784 (0.535 to 1.151) 2
Risk Ratio (95% CI): Furuncle (AE table): 0.500 (0.171 to 1.462) 3
Risk Ratio (95% CI): Gastroenteritis, viral (AE table): 0.789 (0.525 to 1.185) 2
Risk Ratio (95% CI): Gastroesophageal reflux (AE table): 0.333 (0.090 to 1.231) 4
Risk Ratio (95% CI): Gingivitis (AE table): 0.500 (0.171 to 1.462) 3
Risk Ratio (95% CI): Glomerulonephritis and Nephrotic Syndrome (AE table): [0 drug vs 4 PBO]
Risk Ratio (95% CI): Guttate psoriasis (AE table): [1 drug vs 0 PBO)
Risk Ratio (95% CI): Helicobacter infection (AE table): 0.556 (0.186 to 1.657) 3
Risk Ratio (95% CI): Hepatitis C (AE table): [1 drug vs 0 PBO]
Risk Ratio (95% CI): Herpes Zoster (AE table): 0.960 (0.695 to 1.325) 1
Risk Ratio (95% CI): Herpes simplex (AE table): 0.625 (0.205 to 1.909) 2
Risk Ratio (95% CI): Hyperglycemia (AE table): 0.764 (0.562 to 1.037) 2
Risk Ratio (95% CI): Hyperkalemia (AE table): 0.582 (0.377 to 0.898) 3
Risk Ratio (95% CI): Hypertension (AE table): 0.930 (0.804 to 1.077) 1
Risk Ratio (95% CI): Hypertensive Crisis (AE Table): 0.698 (0.439 to 1.110) 2
Risk Ratio (95% CI): Hypokalemia (AE table): 1.064 (0.784 to 1.445) −1
Risk Ratio (95% CI): Hypomagnesemia (AE table): 0.675 (0.422 to 1.078) 2
Risk Ratio (95% CI): IgA Nephropathy (AE table): [No cases in study]
Risk Ratio (95% CI): Infected bite (AE table): 0.714 (0.227 to 2.249) 2
Risk Ratio (95% CI): Influenza (AE table): 0.971 (0.824 to 1.144) 1
Risk Ratio (95% CI): Influenza like illness (AE table): 0.852 (0.489 to 1.483) 1
Risk Ratio (95% CI): Jaundice cholestatic (AE table): [4 drug vs 0 PBO]
Risk Ratio (95% CI): Large intestine polyps (AE table): 0.385 (0.137 to 1.078) 4
Risk Ratio (95% CI): Limb Fractures and Dislocations (AE table): 0.883 (0.541 to 1.439) 1
Risk Ratio (95% CI): Lupus (AE table): [0 drugs vs 1 PBO]
Risk Ratio (95% CI): Male Infertility (AE table): [No cases in study]
Risk Ratio (95% CI): Microalbuminuria (AE table): 0.214 (0.062 to 0.745) 4
Risk Ratio (95% CI): Migraine (AE table): 2.751 (0.877 to 8.631) −4
Risk Ratio (95% CI): Mucosal inflammation (AE table): 0.600 (0.144 to 2.510) 2
Risk Ratio (95% CI): Multiple Sclerosis (AE table): [0 drugs vs 1 PBO]
Risk Ratio (95% CI): Muscle spasms (AE table): 0.579 (0.421 to 0.795) 3
Risk Ratio (95% CI): NASH (AE table): 0.167 (0.020 to 1.384) 5
Risk Ratio (95% CI): NASH for b/l NFS >0.675 (AE table): 0.252 (0.028 to 2.251) 4
Risk Ratio (95% CI): NASH+Hepatic Steatosis for NFS >0.675 (AE table): 0.740 (0.342 to 1.601) 2
Risk Ratio (95% CI): Nasopharyngitis, Mild Severity (AE table): 0.975 (0.840 to 1.133) 1
Risk Ratio (95% CI): Nephrolithiasis (AE table): 1.050 (0.777 to 1.419) −1
Risk Ratio (95% CI): Nephropathies (AE table): 0.679 (0.380 to 1.213) 2
Risk Ratio (95% CI): Nephrotic Syndrome (AE table): [0 drug vs 1 PBO]
Risk Ratio (95% CI): Orthopnea (AE table): 0.500 (0.151 to 1.660) 3
Risk Ratio (95% CI): PMS/Dysmenorrhea (AE table): [No cases in study]
Risk Ratio (95% CI): PTSD (AE table): 0.667 (0.111 to 3.989) 2
Risk Ratio (95% CI): Pancytopenia (AE table): 0.556 (0.186 to 1.657) 3
Risk Ratio (95% CI): Pneumonia (AE table): 0.950 (0.807 to 1.118) 1
Risk Ratio (95% CI): Polycystic Ovarian Syndrome (AE table): [No cases in study]
Risk Ratio (95% CI): Proteinuria (AE table): 0.609 (0.314 to 1.181) 2
Risk Ratio (95% CI): Psoriasis (AE table): 1.750 (0.949 to 3.230) −3
Risk Ratio (95% CI): Psoriatic Conditions (AE table): 1.875 (1.024 to 3.435) −3
Risk Ratio (95% CI): Psychosis: Psychotic disorder NEC (AE table): 0.500 (0.045 to 5.513) 3
Risk Ratio (95% CI): Pulmonary Edema (AE table): 0.556 (0.257 to 1.202) 3
Risk Ratio (95% CI): Rental Transplant (AE table): [No cases in study]
Risk Ratio (95% CI): Respiratory Failure (AE table): 0.909 (0.497 to 1.664) 1
Risk Ratio (95% CI): Respiratory tract infection (AE table): 0.939 (0.629 to 1.401) 1
Risk Ratio (95% CI): Rheumatoid Arthritis (AE table): [0 drug vs 3 PBO]
Risk Ratio (95% CI): Rhinitis (AE table): 0.727 (0.383 to 1.383) 2
Risk Ratio (95% CI): Schizophrenia NEC (AE table): 0.500 (0.045 to 5.513) 3
Risk Ratio (95% CI): Sepsis (AE table): 0.786 (0.499 to 1.237) 2
Risk Ratio (95% CI): Severe chronic obstructive pulmonary disease (AE table): 0.857 (0.458 to 1.607) 1
Risk Ratio (95% CI): Severe dermatitis, allergic (AE table): 0.250 (0.028 to 2.236) 4
Risk Ratio (95% CI): Severe gastroenteritis (AE table): 0.667 (0.273 to 1.630) 2
Risk Ratio (95% CI): Severe sepsis (AE table): 0.759 (0.437 to 1.318) 2
Risk Ratio (95% CI): Severe systemic inflammatory response syndrome (AE table): 0.167 (0.020 to 1.384) 5
Risk Ratio (95% CI): Severe urinary tract infection (AE table): 0.650 (0.324 to 1.305) 2
Risk Ratio (95% CI): Sickle Cell Disease (AE table): [No cases in study]
Risk Ratio (95% CI): Systemic inflammatory response syndrome (AE table): 0.250 (0.053 to 1.177) 4
Risk Ratio (95% CI): Tooth infection (AE table): 0.690 (0.391 to 1.217) 2
Risk Ratio (95% CI): Ulcerative Colitis (AE table): [0 drug vs 1 PBO]
Risk Ratio (95% CI): Vascular hypertensive disorder (AE table): 0.914 (0.796 to 1.050) 1
Risk Ratio (95% CI): Vulvovaginal mycotic infection (AE table): 0.455 (0.158 to 1.307) 3
Risk Ratio (95% CI): Wheezing (AE table): 0.639 (0.379 to 1.076) 2
ARR (ADHD): 0.0%
NNT (ADHD): −8362005
Risk Ratio (95% CI) (ADHD): 1.000 (0.141 to 7.097) −1
ARR (Acute Myeloid Leukaemia): 0.0%
NNT (Acute Myeloid Leukaemia): −8362005
Risk Ratio (95% CI) (Acute Myeloid Leukaemia): 1.000 (0.141 to 7.097) −1
ARR [1]: 0.0%
NNT [1]: −4088
Risk Ratio (95% CI) [1]: 2.000 (0.181 to 22.053) −3
ARR (Alzheimer's Disease): 0.0%
NNT (Alzheimer's Disease): −3344802
Risk Ratio (95% CI) (Alzheimer's Disease): 1.000 (0.290 to 3.452) −1
ARR (Asthma): 0.1%
NNT (Asthma): −1019
Risk Ratio (95% CI) (Asthma): 1.076 (0.742 to 1.560) −1
